Earlier results, collected in US5683715A, “Taxane-containing phosphatidylcholine liposomes” (The Liposome Company, Inc., priority 1995, dated 1997).

Assays:
[1] = tested on: tubulin; settings: Schiff and Horowitz 1980
[2] = tested on: ovarian and breast cancers, malignant melanoma, colon cancer, leukemias and lung cancer; settings: literature

For `CC(=O)O[C@H]1C(=O)[C@@]2(C)[C@H]([C@H](OC(=O)c3ccccc3)[C@]3(O)C[C@H](OC(=O)[C@H](O)[C@@H](NC(=O)c4ccccc4)c4ccccc4)C(C)=C1C3(C)C)[C@]1(OC(C)=O)CO[C@@H]1C[C@@H]2O` [Paclitaxel], the “Concentrations of optimal effect on polymerization and stabilization of microtubules” value [1] is listed as “near stoichiometric equivalence with tubulin dimers” and the Activity against cancers [2] is listed as “activity against ovarian and breast cancers, as well as against malignant melanoma, colon cancer, leukemias and lung cancer”.
